System: mouse melanoma cell line (B16F1)
Test: Cytotoxicity tests with a mouse melanoma cell line (B16F1)
Format: cell-based
Conditions: B16F1 mouse melanoma cells, concentration of 100 μM

For Cyanocobalamin [vitamin B12], the proliferation inhibition was “no effect at all”.

From patent US7692002B2, “Metal complexes having vitamin B12 as a ligand” (University of Zurich, priority 2004, dated 2010)
